The record followed here is EP4806898A1, “HETEROARYL DERIVATIVE COMPOUND AND USE THEREOF” (Voronoi Inc., priority 2023, dated 2025).

For orientation: ΔTm means the shift of the melting midpoint relative to a reference. For orientation: GI50 means the concentration giving 50% growth inhibition.

A value given as a limit tells only on which side of the number the result lay.

In one assay the target is T1, recombinant USP1 protein (Homo sapiens, UniProt O94782, DEL125-138/DEL229-408/DEL608-737).
T1 sequence (O94782 with tags, fused parts or gaps DEL125-138/DEL229-408/DEL608-737): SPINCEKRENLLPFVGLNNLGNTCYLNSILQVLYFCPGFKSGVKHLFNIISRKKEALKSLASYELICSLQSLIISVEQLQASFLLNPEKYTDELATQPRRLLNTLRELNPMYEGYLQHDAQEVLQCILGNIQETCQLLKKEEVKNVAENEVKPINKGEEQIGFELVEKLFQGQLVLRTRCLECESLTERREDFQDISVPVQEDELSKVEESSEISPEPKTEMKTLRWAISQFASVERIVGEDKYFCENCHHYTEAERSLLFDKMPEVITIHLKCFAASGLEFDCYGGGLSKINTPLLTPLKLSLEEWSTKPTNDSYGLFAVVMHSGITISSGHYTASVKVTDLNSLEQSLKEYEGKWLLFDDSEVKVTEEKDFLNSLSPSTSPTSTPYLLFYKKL
Put plainly: Binding affinity to recombinant USP1 protein by differential scanning fluorimetry. The note with it: compound 100 µM; 0.03 mg/mL USP1 (Δ1-66, Δ125-138, Δ229-408, Δ608-737); Tm with compound minus Tm with DMSO; read-out: ΔTm (°C). In outline:
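USP1 (Δ1-66, Δ125-138, Δ229-408, Δ608-737) at 0.03 mg/mL with dye in 50 mM Tris-HCl pH 8.0, 150 mM NaCl, 2% glycerol, 1 mM DTT; compounds at 100 µM final. Tm read on real-time PCR instrument; ΔTm = Tm with compound minus Tm with DMSO.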
Background: Differential scanning fluorimetry follows unfolding on heating by fluorescence.

A further assay concerns UWB1.289 cells. The experiment in a line: Cell proliferation inhibitory activity in BRCA1/2-mutant or HRD-positive cells (Cell Titer-Glo). The following applies: UWB1289; UWB1.289 cells, 144 hours after compound treatment, Cell Titer-Glo, 1.5 nM to 10 µM; read-out: GI50 UWB1.289 BRCA1 mut. The class given is cell-based. The method, boiled down:
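UWB1.289 cells (1,000/well) in 50% MEBM/50% RPMI1640 exposed to […], final 1.5 nM to 10 µM, for 144 h at 37 °C. Viable cells measured by CellTiter-Glo luminescence; GI50 calculated.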
Background: Cellular ATP, detected with luciferase, serves as a proxy for viable cell number.

Take `CNC1CN(C(=O)c2cc3cnc(-c4c(OC)ncnc4C4CC4)nc3n2Cc2ccc(-c3nc(C(F)(F)F)cn3C)cc2)C1` [Example 203, (2-(4-cyclopropyl-6-methoxypyrimid in-5-yl)-7-(4-(1-methyl-4-(trifluoromethyl)-1H-imidazol-2-yl)benzyl)-7H-pyrrolo[2,3-d]pyrimidin-6-yl) (3-(methylamino)azetidin-1-yl)methanone]: the shift in melting temperature (ΔTm) at 100 µM at recombinant USP1 protein is greater than 5 °C. In the assay with UWB1.289 cells, the GI50 was less than 100 nM.
For `COc1ncnc(C2CC2)c1-c1ncc2cc(C(=O)N(C)C)n(Cc3ccc(-c4nc(C(F)(F)F)cn4C)cc3)c2n1` [Example 204, 2-(4-cyclopropyl-6-methoxypyrimidin-5-yl)-N,N-dimethyl-7-(4-(1-methyl-4-(trifluoromethyl)-1H-imidazol-2-yl)benzyl)-7H-pyrrolo[2,3-d]pyrimidine-6-carboxamide], on recombinant USP1 protein, the thermal shift (ΔTm) at 100 µM was greater than 5 °C. Besides, in the assay with UWB1.289 cells, the GI50 is less than 100 nM.
Regarding `COc1ncnc(C2CC2)c1-c1ncc2cc(C(=O)NCC(C)(C)O)n(Cc3ccc(-c4nc(C(F)(F)F)cn4C)cc3)c2n1` [Example 205, 2-(4-cyclopropyl-6-methoxypyrimidin-5-yl)-N-(2-hydroxy-2-methylpropyl)-7-(4-(1-methyl-4-(trifluoromethyl)-1H-imidazol-2-yl)benzyl)-7H-pyrrolo[2,3-d]pyrimidine-6-carboxamide], the shift in melting temperature (ΔTm) at 100 µM at recombinant USP1 protein is greater than 5 °C. Further, the GI50 in the assay on UWB1.289 cells was less than 100 nM.
Regarding `COc1ncnc(C2CC2)c1-c1ncc2cc(C(=O)N[C@@H]3CCN(C)CC3(F)F)n(Cc3ccc(-c4nc(C(F)(F)F)cn4C)cc3)c2n1` [Example 207, (R) -2-(4-cyclopropyl-6-methoxypyrimidin-5-yl)-N-(3,3-difluoro-1-methylpiperidin-4-yl)-7-(4-(1-methyl-4-(trifluoromethyl)-1H-imidazol-2-yl)benzyl)-7H-pyrrolo[2,3-d]pyrimidine-6-carboxamide], the ΔTm at 100 µM on recombinant USP1 protein was greater than 5 °C. In addition, in the assay on UWB1.289 cells, the GI50 is less than 100 nM.
With `CNC(=O)c1cc2cnc(-c3c(OC)ncnc3C3CC3)nc2n1Cc1ccc(-c2nc(C(F)(F)F)c3ccccn23)cc1` [Example 208, 2-(4-cyclopropyl-6-methoxypyrimidin-5-yl)-N-methyl-7-(4-(1-(trifluoromethyl)imidazol[1,5-a]pyridin-3-yl)benzyl)-7H-pyrrolo[2,3-d]pyrimidine-6-carboxamide], the ΔTm at 100 µM at recombinant USP1 protein was greater than 5 °C. The GI50 with UWB1.289 cells was less than 100 nM.
Regarding `CNC(=O)c1cc2cnc(-c3c(OC)ncnc3C3CC3)nc2n1Cc1ccc(-c2cc(C)ccn2)cc1` [Example 209, 2-(4-cyclopropyl-6-methoxypyrimidin-5-yl)-N-methyl-7-(4-(4-methylpyridin-2-yl)benzyl)-7H-pyrrolo[2,3-d]pyrimidine-6-carboxamide], the ΔTm at 100 µM on recombinant USP1 protein is greater than 5 °C. Further, in the assay on UWB1.289 cells, the GI50 is less than 100 nM.
For the compound `COc1ncnc(C2CC2)c1-c1ncc2cc(C(=O)N(C)CSC)n(Cc3ccc(-c4nc(C(F)(F)F)cn4C)cc3)c2n1` [Example 210, 2-(4-cyclopropyl-6-methoxypyrimidin-5-yl)-N-methyl-7-(4-(1-methyl-4-(trifluoromethyl)-1H-imidazol-2-yl)benzyl)-N-((methylthio)methyl)-7H-pyrrolo[2,3-d]pyrimidine-6-carboxamide], on recombinant USP1 protein, the shift in melting temperature (ΔTm) at 100 µM is greater than 5 °C. For the same compound, the GI50 in the assay on UWB1.289 cells was less than 100 nM.
In the same order, the values of `COc1ncnc(C2CC2)c1-c1ncc2cc(C(=O)N[C@H]3CN(C(C)C)C[C@H]3F)n(Cc3ccc(-c4nc(C(F)(F)F)cn4C)cc3)c2n1` [Example 211, 2-(4-cyclopropyl-6-methoxypyrimidin-5-yl)-N-((3S,4R)-4-fluoro-1-isopropylpyrrolidin-3-yl)-7-(4-(1-methyl-4-(trifluoromethyl)-1H-imidazol-2-yl)benzyl)-7H-pyrrolo[2,3-d]pyrimidine-6-carboxamide] are greater than 5 °C and less than 100 nM.
As to `COc1ncnc(C2CC2)c1-c1ncc2cc(C(=O)N[C@H]3CN(C4COC4)C[C@H]3F)n(Cc3ccc(-c4nc(C(F)(F)F)cn4C)cc3)c2n1` [Example 212, 2-(4-cyclopropyl-6-methoxypyrimidin-5-yl)-N-((3S,4R)-4-fluoro-1-(oxetan-3-yl)pyrrolidin-3-yl)-7-(4-(1-methyl-4-(trifluoromethyl)-1H-imidazol-2-yl)benzyl)-7H-pyrrolo [2,3-d]pyrimidine-6-carboxamide], at recombinant USP1 protein, the shift in melting temperature (ΔTm) at 100 µM is greater than 5 °C. In addition, the GI50 in the assay on UWB1.289 cells is less than 100 nM.
In the case of `CNC(=O)c1cc2cnc(-c3c(OC)ncnc3C3CC3)nc2n1Cc1ccc(-c2nc(C(F)(F)F)c(OC)n2C)cc1` [Example 214, 2-(4-cyclopropyl-6-methoxypyrimidin-5-yl)-7-(4-(5-methoxy-1-methyl-4-(trifluoromethyl)-1H-imidazol-2-yl)benzyl)-N-methyl-7H-pyrrolo[2,3-d]pyrimidine-6-carboxamide], at recombinant USP1 protein, the ΔTm at 100 µM was greater than 5 °C. Also, the 50% growth inhibitory concentration (GI50) with UWB1.289 cells was less than 100 nM.
As to `COc1ncnc(C2CC2)c1-c1ncc2cc(C(=O)N[C@H]3CN(C4CC4)C[C@H]3F)n(Cc3ccc(-c4nc(C(F)(F)F)cn4C)cc3)c2n1` [Example 215, N-((3S,4R)-1-cyclopropyl-4-fluoropyrrolidin-3-yl)-2-(4-cyclopropyl-6-methoxypyrimidin-5-yl)-7-(4-(1-methyl-4-(trifluoromethyl)-1H-imidazol-2-yl)benzyl)-7H-pyrrolo[2,3-d]pyrimidine-6-carboxamide], the thermal shift (ΔTm) at 100 µM at recombinant USP1 protein was greater than 5 °C. Besides, the concentration for 50% growth inhibition (GI50) with UWB1.289 cells is less than 100 nM.
As to `COc1ncnc(C2CC2)c1-c1ncc2cc(C(=O)N[C@@H]3CCN(C4COC4)C[C@@H]3F)n(Cc3ccc(-c4nc(C(F)(F)F)cn4C)cc3)c2n1` [Example 216, 2-(4-cyclopropyl-6-methoxypyrimidin-5-yl)-N-((3S,4R)-3-fluoro-1-(oxetan-3-yl)piperidin-4-yl)-7-(4-(1-methyl-4-(trifluoromethyl)-1H-imidazol-2-yl)benzyl) -7H-pyrrolo[2,3-d]pyrimidine-6-carboxamide], the shift in melting temperature (ΔTm) at 100 µM on recombinant USP1 protein is greater than 5 °C. Also, the GI50 in the assay on UWB1.289 cells lay in the range of 100 to 500 nM.
For `COc1ncnc(C2CC2)c1-c1ncc2cc(C(=O)N[C@@H]3CN(C)C[C@@H]3F)n(Cc3ccc(-c4nc(C(F)(F)F)cn4C)cc3)c2n1` [Example 217, 2-(4-cyclopropyl-6-methoxypyrimidin-5-yl)-N-((3R,4S)-4-fluoro-1-methylpyrrolidin-3-yl)-7-(4-(1-methyl-4-(trifluoromethyl)-1H-imidazol-2-yl)benzyl) -7H-pyrrolo[2,3-d]pyrimidine-6-carboxamide], the thermal shift (ΔTm) at 100 µM on recombinant USP1 protein is greater than 5 °C. Further, the GI50 in the assay on UWB1.289 cells is less than 100 nM.
As for `COc1ncnc(C2CC2)c1-c1ncc2cc(C(=O)N[C@@H]3CN(C)C[C@H]3F)n(Cc3ccc(-c4nc(C(F)(F)F)cn4C)cc3)c2n1` [Example 218, 2-(4-cyclopropyl-6-methoxypyrimidin-5-yl) -N-((3R,4R)-4-fluoro-1-methylpyrrolidin-3-yl)-7-(4-(1-methyl-4-(trifluoromethyl)-1H-imidazol-2-yl)benzyl)-7H-pyrrolo[2,3-d]pyrimidine-6-carboxamide], on recombinant USP1 protein, the thermal shift (ΔTm) at 100 µM is greater than 5 °C. Further, the concentration for 50% growth inhibition (GI50) in the assay with UWB1.289 cells was less than 100 nM.
In the case of `COc1ncnc(C2CC2)c1-c1ncc2cc(C(=O)N[C@@H]3CCN(C)C[C@@H]3F)n(Cc3ccc(-c4nc(C(F)(F)F)cn4C(C)C)cc3)c2n1` [Example 219, 2-(4-cyclopropyl-6-methoxypyrimidin-5-yl)-N-((3S,4R)-3-fluoro-1-methylpiperidin-4-yl)-7-(4-(1-isopropyl-4-(trifluoromethyl)-1H-imidazol-2-yl)benzyl)-7H-pyrrolo[2,3-d]pyrimidine-6-carboxamide], the ΔTm at 100 µM on recombinant USP1 protein was greater than 5 °C. Moreover, the 50% growth inhibitory concentration (GI50) in the assay with UWB1.289 cells is less than 100 nM.
Turning to `COc1ncnc(C2CC2)c1-c1ncc2cc(C(=O)N[C@H]3CN(C)C[C@H]3F)n(Cc3ccc(-c4nc(C(F)(F)F)cn4C(C)C)cc3)c2n1` [Example 220, 2-(4-cyclopropyl-6-methoxypyrimidin-5-yl)-N-((3S,4R)-4-fluoro-1-methylpyrrolidin-3-yl)-7-(4-(1-isopropyl-4-(trifluoromethyl)-1H-imidazol-2-yl)benzyl)-7H-pyrrolo[2,3-d]pyrimidine-6-carboxamide], at recombinant USP1 protein, the ΔTm at 100 µM is greater than 5 °C. Besides, the concentration for 50% growth inhibition (GI50) in the assay on UWB1.289 cells is less than 100 nM.
As to `COc1ncnc(C2CC2)c1-c1ncc2cc(C(=O)N[C@@H]3CCN(C(C)C)C[C@@H]3F)n(Cc3ccc(-c4nc(C(F)(F)F)cn4C)cc3)c2n1` [Example 221, 2-(4-cyclopropyl-6-methoxypyrimidin-5-yl)-N-((3S,4R)-3-fluoro-1-isopropylpiperidin-4-yl)-7-(4-(1-methyl-4-(trifluoromethyl)-1H-imidazol-2-yl)benzyl)-7H-pyrrolo[2,3-d]pyrimidine-6-carboxamide], the thermal shift (ΔTm) at 100 µM at recombinant USP1 protein is greater than 5 °C. The GI50 in the assay on UWB1.289 cells is less than 100 nM.
